Common to all, as to format: cell-based, human
In experiment [1] the test system is MB231 (MDA-MB231) cells. Put plainly: MTS cell viability assay, MB231. As to conditions: MB231, inhibitor added 30 min prior to TP4, cell viability. As to the method:
Cell-lines used in this study were purchased from the Bioresource Collection and Research Center (BCRC) in and the cells were cultured by the standard cell culture procedures and conditions provided by the BCRC. MB231 (BCRC 60425), MB453 (BCRC 60429), and HDF cells were cultured as previously described by Ting et al. MCF7 […] cells were maintained in α-MEM medium (ThermoFisher Scientific) supplemented with 2 mM L-glutamine, 10% FBS, 0.1 mM non-essential amino acids, 1 mM sodium pyruvate, and antibiotics (100 U mL^−1 penicillin G and […] streptomycin). M10 (BCRC 60197) cells were maintained in α-MEM medium (ThermoFisher Scientific) supplemented with 10% FBS and antibiotics. With the exception of MB231 and MB453, all cells were cultured at 37° C. with 5% CO2. For the cell viability and transfection assay, 1×10^4 cells [5×10^3 M10 cells were seeded and cultured for 48 h to allow the cells sufficient time for attachment] were seeded into the wells of a 96-well plate and cultured overnight. For the transfection assays, cells were transfected with 0.1-0.4 μg FOSB/FOSAB expression plasmid (Origene Technology Inc.) and cell viability was determined after 72 h. The transfection efficiencies (number of cells expressing eGFP/all cells) of the MB231 transfection assays were determined by observing ten randomly selected fields (from three independent transfections) of control GFP plasmid transfections under an inverted microscope (Olympus, IX71) coupled to a digital camera (Olympus DP80), using an […] (LCPlanFI 20×/0.40 Ph1). CellSens standard software (Olympus) was used for image acquisition. During the drug treatment assay, inhibitors (PD98059, BAPTA-AM, and AlP II) were added 30 min prior to TP4, and cell viability was determined at indicated time-points. Transfection was performed using LipofectAMINE™ 3000 (ThermoFisher Scientific), according to the manufacturer's recommendations. Knock-down cells were generated by transducing MB231 cells with pre-synthesized FOSB (or control) shRNA lentiviral particles (Santa Cruz Biotechnology), and selecting puromycin-resistant cells in accordance with the manufacturer's standard protocol. MB231 or M10 cells stably expressing eGFP or mOrange2 were generated through transfection with peGFP-puromycin or pmOrange2-C1 plasmid, followed by puromycin (5 μg mL^−1) or G418 (500 μg mL^−1) selection as described above.
Cell viability was quantitatively analyzed using the CellTiter-Glo® Luminescent Cell Viability Assay kit (ATP assay) and CellTiter 96® AQueous Non-Radioactive Cell Proliferation Assay kit (MTS assay) (Promega) in accordance with the manufacturer's protocol. For MTS assay, 1×10^4 cells were seeded into the wells of a 96-well plate and cultured overnight [5×10^3 M10 cells were seeded and cultured for 48 h to enable sufficient well attachment]. Cells were subsequently treated with different doses of TP4 (2.5-20 μg mL^−1) and harvested at the indicated time-points (3-24 h). Reaction mixtures (20 μL: MTS+PMS, using a ratio 20:1) were directly added to the cells, and the plates were incubated for 3 h at 37° C. Absorbance at 490 nm is directly proportional to the number of living cells in culture and was measured using a photometer (SpectraMax® i3, Molecular Devices). ATP assay was performed as previously described by Ting et al. Lactate dehydrogenase (LDH) assays were performed by quantitatively measuring cell lysis with a Cytotoxicity Detection Kit^PLUS (LDH) (Roche) in accordance with the manufacturer's protocol. The LDH standard was purchased from Cayman Chemical. Briefly, 1×10^4 cells were seeded into the wells of a 96-well plate and cultured overnight. Culture media were replaced with fresh medium containing 1% FBS and cells were subsequently treated with different doses of TP4 (2.5-20 μg mL^−1). Supernatants were harvested at 3 h. […]

Experiment [2] concerns FOSB in MCF7 cells. In words: FOSB induction, Western blot/immunocytochemistry, MCF7. As to conditions: Western blot. As to the method:
(§1) Nuclear extracts were prepared as previously described^23. Equal amounts of nuclear extract (200 μg) were used for immunoprecipitation (IP) using Dynabeads protein G (ThermoFisher Scientific), in accordance with the recommended protocol. cJUN antibody (ThermoFisher Scientific, clone C.238.2) was used for immunoprecipitation. Total cell extract preparation and Western blot were performed as previously described^23. Equal amounts of boiled lysate (20 μg of total cell extract) were separated on acrylamide gels, and then transferred to PVDF membranes. The membranes were incubated in blocking solution (0.1 M PBS, 5% non-fat milk, 0.2% Tween-20) for 1 h at room temperature (RT), and then incubated in the same solution with primary or secondary antibodies (GE Healthcare Life Science). […] Membranes were visualized with enhanced chemiluminescence (Immobilon Western Chemiluminescent HRP substrate, Merck Millipore) and detected by an imaging system (UVP, BioSpectrum™ 500). Signal intensities were determined by densitometric analysis (AlphaInnotech) using the AlphaImager program. The results were expressed as relative densitometric units (RDU) (the densitometric units of FOSB+FOSΔB divided by those of GAPDH). […]

The test system of experiment [3] is FOSB in MB453 cells. Put plainly: FOSB induction, Western blot/immunocytochemistry, MB453. To be noted: Western blot. As to the method: as §1
A general note: In western blotting, separated proteins are transferred to a membrane and probed.

For experiment [4], the system named is FOSB in MB231 cells. Put plainly: FOSB induction, Western blot/immunocytochemistry, MB231. As to conditions: for effect of inhibitor on TP4-induced FOSB induction: TNBC cells, pre-treatment prior to TP4, Western blot. As to the method:
Nuclear extracts were prepared as previously described^23. Equal amounts of nuclear extract (200 μg) were used for immunoprecipitation (IP) using Dynabeads protein G (ThermoFisher Scientific), in accordance with the recommended protocol. cJUN antibody (ThermoFisher Scientific, clone C.238.2) was used for immunoprecipitation. Total cell extract preparation and Western blot were performed as previously described^23. Equal amounts of boiled lysate (20 μg of total cell extract) were separated on acrylamide gels, and then transferred to PVDF membranes. The membranes were incubated in blocking solution (0.1 M PBS, 5% non-fat milk, 0.2% Tween-20) for 1 h at room temperature (RT), and then incubated in the same solution with primary or secondary antibodies (GE Healthcare Life Science). […] Membranes were visualized with enhanced chemiluminescence (Immobilon Western Chemiluminescent HRP substrate, Merck Millipore) and detected by an imaging system (UVP, BioSpectrum™ 500). Signal intensities were determined by densitometric analysis (AlphaInnotech) using the AlphaImager program. The results were expressed as relative densitometric units (RDU) (the densitometric units of FOSB+FOSΔB divided by those of GAPDH).
The plasma membrane and mitochondria were stained by pre-incubating biotinylated-TP4 treated cells (14 μg mL^−1, 3 h) with Alexa Flour 647 dye-conjugated wheat germ agglutinin (WGA) (5 μg mL^−1) (ThermoFisher Scientific) for 10 min at 37° C. or with MitoTracker® Red CMXRos probe (200 nM) (ThermoFisher Scientific) for 45 min at 37° C. prior to cell fixation. […] The fluorescent signal (which is proportional to functional mitochondria) was quantitatively determined using Image J software. […] The fluorescent FOSB signal was quantitatively determined using Image J software. […]

Structures can show the parent of a compound that is named as a salt.

Take `COc1cccc(-c2cc(=O)c3ccccc3o2)c1N` [PD98059, reference compound]: the “effect of inhibitor on TP4-induced TNBC cell death” value in experiment [1] is reported as “disrupted”.

`CC(=O)O[C@@]12CO[C@@H]1C[C@H](O)[C@@]1(C)C(=O)[C@H](O)C3=C(C)[C@@H](OC(=O)[C@H](O)[C@@H](NC(=O)OC(C)(C)C)c4ccccc4)C[C@@](O)([C@@H](OC(=O)c4ccccc4)[C@H]21)C3(C)C` [docetaxel, Docetaxel]: the FOSB induction entry in experiment [2] and in experiment [3] was “induced FOSB” throughout.

Take `COc1cccc2c1C(=O)c1c(O)c3c(c(O)c1C2=O)C[C@@](O)(C(=O)CO)C[C@@H]3O[C@H]1C[C@H](N)[C@H](O)[C@H](C)O1` [doxorubicin, Doxorubicin hydrochloride]: the FOSB induction entry in experiment [4] (MB231 (TNBC) cells, Western blot) is listed as “induced strong FOSB expression”.

As to `CC(=O)OCOC(=O)CN(CC(=O)OCOC(C)=O)c1ccccc1OCCOc1ccccc1N(CC(=O)OCOC(C)=O)CC(=O)OCOC(C)=O` [BAPTA/AM, 1,2-Bis(2-aminophenoxy)ethane-N,N,N,N-tetraacetic acid tetrakis(acetoxymethyl ester), reference compound], the “effect of inhibitor on TP4-induced TNBC cell death” value in experiment [1] is recorded as “disrupted”. For the same compound, in experiment [4], the “effect of inhibitor on TP4-induced FOSB induction” value is “disrupted”.

In the case of `CC(=O)O[C@H]1C(=O)[C@@]2(C)[C@H]([C@H](OC(=O)c3ccccc3)[C@]3(O)C[C@H](OC(=O)[C@H](O)[C@@H](NC(=O)c4ccccc4)c4ccccc4)C(C)=C1C3(C)C)[C@]1(OC(C)=O)CO[C@@H]1C[C@@H]2O` [paclitaxel, Paclitaxel], the FOSB induction entry in experiment [2] and in experiment [3] was “induced FOSB” throughout.

“Autocamtide-2 related inhibitory peptide II [AIP2, reference compound]”: the “effect of inhibitor on TP4-induced TNBC cell death” value in experiment [1] is recorded as “partly prevented”. The “effect of inhibitor on TP4-induced FOSB induction” value in experiment [4] was “trend towards decrease, but not complete block”.

(Values after US10232013B2, “Use of an antimicrobial peptide TP4 in treating a cancer” (Academia Sinica, priority 2016, dated 2019).)
